The results in this text go back to ChEMBL document CHEMBL5584353, “Design, Synthesis, and Biological Evaluation of Potent EZH2/LSD1 Dual Inhibitors for Prostate Cancer” (J Med Chem, 2024).

Series [1] concerns LNCaP. Description: Growth inhibition of human LNCaP cells incubated for 6 to 7 days by MTS assay. It is filed as functional. Conditions: time 6-7 day. (Tetrazolium dyes change colour on reduction, which living cells bring about.)
For series [2], the system named is PC-3. Description: Growth inhibition of human PC-3 cells incubated for 6 to 7 days by MTS assay. The format is functional. The settings on record: time 6-7 day.
The test system of series [3] is CWR22R. Description: Growth inhibition of human 22Rv1 cells incubated for 6 to 7 days by MTS assay. The settings on record: time 6-7 day. It is filed as functional.
A short description of series [4]: Inhibition of LSD2 (unknown origin). The arrangement: species or system Homo sapiens.
Series [5] deals with T1, Amine oxidase [flavin-containing] A (Homo sapiens, UniProt P21397).
T1 sequence (P21397 whole entry): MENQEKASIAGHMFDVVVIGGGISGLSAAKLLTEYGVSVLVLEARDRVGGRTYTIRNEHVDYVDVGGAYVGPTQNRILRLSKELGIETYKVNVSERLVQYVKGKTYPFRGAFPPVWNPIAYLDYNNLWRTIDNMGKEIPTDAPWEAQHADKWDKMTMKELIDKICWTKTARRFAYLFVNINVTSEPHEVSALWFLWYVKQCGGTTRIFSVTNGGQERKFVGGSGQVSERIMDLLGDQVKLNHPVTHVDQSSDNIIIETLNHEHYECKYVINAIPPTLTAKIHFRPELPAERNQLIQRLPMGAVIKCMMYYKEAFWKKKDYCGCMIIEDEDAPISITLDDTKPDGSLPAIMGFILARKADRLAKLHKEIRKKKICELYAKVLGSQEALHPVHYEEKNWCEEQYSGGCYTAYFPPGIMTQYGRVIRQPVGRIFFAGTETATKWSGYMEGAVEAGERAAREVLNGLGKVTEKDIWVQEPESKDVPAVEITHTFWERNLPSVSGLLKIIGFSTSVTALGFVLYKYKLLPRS
Description: Inhibition of MAO-A (unknown origin).

The target in series [6] is T2, Lysine-specific histone demethylase 1A (Homo sapiens, UniProt O60341). Description: Inhibition of LSD1 in human LNCaP cells assessed as upregulation of H3K9me2 expression at 10 uM incubated for 24 hrs by Western blotting analysis. It is filed as cell-based. On the technique in general: A western blot detects proteins with antibodies after separation by electrophoresis.

For series [7], the target named is T2, Lysine-specific histone demethylase 1A. Description: Inhibition of LSD1 in human 22Rv1 cells assessed as upregulation of H3K9me2 expression at 10 uM incubated for 24 hrs by Western blotting analysis. The format is cell-based.
Series [8] deals with Histone-lysine N-methyltransferase EZH2 (Homo sapiens) (UniProt Q15910). Description: Inhibition of EZH2 in human 22Rv1 cells assessed as downregulation of H3K27me3 expression at 10 uM incubated for 24 hrs by Western blotting analysis. The format is cell-based.
Sequence of Histone-lysine N-methyltransferase EZH2 (Homo sapiens) (Q15910 whole entry, looked up): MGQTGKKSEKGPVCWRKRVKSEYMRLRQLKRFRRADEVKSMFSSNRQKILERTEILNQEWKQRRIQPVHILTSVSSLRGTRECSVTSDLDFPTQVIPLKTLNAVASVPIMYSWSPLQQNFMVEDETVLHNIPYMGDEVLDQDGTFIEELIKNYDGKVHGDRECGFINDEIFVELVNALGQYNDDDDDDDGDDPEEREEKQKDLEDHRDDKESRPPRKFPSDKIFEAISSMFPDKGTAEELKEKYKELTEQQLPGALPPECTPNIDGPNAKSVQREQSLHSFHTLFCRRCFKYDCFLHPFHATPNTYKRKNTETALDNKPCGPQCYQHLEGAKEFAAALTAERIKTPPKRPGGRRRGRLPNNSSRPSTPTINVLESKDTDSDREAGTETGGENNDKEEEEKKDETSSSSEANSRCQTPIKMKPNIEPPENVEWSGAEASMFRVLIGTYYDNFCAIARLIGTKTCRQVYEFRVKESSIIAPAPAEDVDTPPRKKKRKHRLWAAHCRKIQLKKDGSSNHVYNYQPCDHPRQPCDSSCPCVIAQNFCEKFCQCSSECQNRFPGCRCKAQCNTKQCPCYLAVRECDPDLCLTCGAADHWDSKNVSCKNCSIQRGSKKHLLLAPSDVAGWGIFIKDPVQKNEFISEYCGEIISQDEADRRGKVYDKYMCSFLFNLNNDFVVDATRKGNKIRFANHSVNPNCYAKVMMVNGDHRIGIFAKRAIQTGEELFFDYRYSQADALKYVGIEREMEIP
Series [9] shares this target. Description: Inhibition of EZH2 in human LNCaP cells assessed as downregulation of H3K27me3 expression at 10 uM incubated for 24 hrs by Western blotting analysis. The format is cell-based.
Series [10] relates to CWR22R. Description: Synergistic antitumor activity against human 22Rv1 cells xenografted in BALB/c mouse assessed as tumor growth inhibition at 65 mg/kg,ip administrated daily for 31 days in presence of TCP relative to control. Conditions: 22Rv1, 744 h, read-out: TGI.
Series [11] relates to CWR22R. Description: Induction of apoptosis in human 22Rv1 cells at 10 uM incubated for 5 days by Annexin V-FITC/PI staining based flow cytometric analysis (reference value: 8.97 %). The settings on record: time 5 day. It is filed as functional.
The subject of series [12] is PC-3. Description: Synergistic growth inhibition of human PC-3 cells incubated for 6 to 7 days in presence of TCP by MTS assay. It is filed as functional. Conditions: time 6-7 day.
Series [13] relates to LNCaP. Description: Synergistic growth inhibition of human LNCaP cells incubated for 6 to 7 days in presence of TCP by MTS assay. Conditions: time 6-7 day. It is filed as functional.
Series [14] has as its system CWR22R. Description: Synergistic growth inhibition of human 22Rv1 cells incubated for 6 to 7 days in presence of TCP by MTS assay. Conditions: time 6-7 day. It is filed as functional.
For series [15], the system named is PC-3. Description: Synergistic growth inhibition of human PC-3 cells incubated for 6 to 7 days in presence of ORY1001 by MTS assay. It is filed as functional. The settings on record: time 6-7 day.
Series [16] in a line: Toxicity in BALB/c mouse xenografted with human 22Rv1 cells assessed as change in body weight at 65 mg/kg,ip administrated daily for 31 days in presence of TCP. The format is organism-based, CWR22R. The settings on record: in vivo, 744 h, time 31 day. Background: Xenograft models place foreign cells or tissue in a host animal.
Series [17] is described as follows: Toxicity in BALB/c mouse xenografted with human 22Rv1 cells assessed as change in body weight at 65 mg/kg,ip administrated daily for 31 days. The format is organism-based, CWR22R. The settings on record: in vivo, 744 h, time 31 day.
Series [18] relates to CWR22R. Description: Synergistic growth inhibition of human 22Rv1 cells incubated for 6 to 7 days in presence of ORY1001 by MTS assay. The format is functional. The settings on record: time 6-7 day.
Series [19] has as its system LNCaP. Description: Synergistic growth inhibition of human LNCaP cells incubated for 6 to 7 days in presence of ORY1001 by MTS assay. Conditions: time 6-7 day. It is filed as functional.

A word on the GI50: it is the concentration that inhibits growth by half. What is called IC50 is the concentration needed to halve the response being measured.

Active and inactive are the calls of the source. The calls are words filed in the database; no cut-off is given here. A value given as a limit tells only on which side of the number the result lay.

Consider `CCN(c1cc(-c2ccc([C@@H]3C[C@H]3NCC3CCOCC3)cc2)cc(C(=O)NCc2c(C)cc(C)[nH]c2=O)c1C)C1CCOCC1` (racemic), for which the GI50 came out at 2.64 µM in the series on LNCaP [1], 9.23 µM with PC-3 [2] and 4.03 µM in the series on CWR22R [3]. Moreover, the IC50 in series [4] amounted to 43.7 µM; in series [5], 2.05 µM.

For `CCN(c1cc(-c2ccc([C@@H]3C[C@H]3NC(=O)OC(C)(C)C)cc2)cc(C(=O)NCc2c(C)c(Br)c(C)[nH]c2=O)c1C)C1CCOCC1` (racemic), the results for the GI50 in the series on LNCaP [1], with PC-3 [2] and with CWR22R [3] were 24.1 µM, 5.08 µM and over 30 µM, respectively. Also, the inhibition result in series [6] and in series [7] was “Active” each time. For the same compound, the inhibition result in series [8] and in [9] was “inactive” each time.

On to `CCN(c1cc(-c2ccc(CN3CCOCC3)cc2)cc(C(=O)NCc2c(C)cc(C)[nH]c2=O)c1C)C1CCOCC1` [TAZEMETOSTAT], for which the inhibition in vivo at 65 mg/kg in the series with CWR22R [10] is 28.8%. For the same compound, the GI50 in the series on LNCaP [1] was 19.5 µM; in the series on PC-3 [2], over 30 µM; in the series with PC-3 [12] it was over 30 µM; in the series with LNCaP [13] it was 13 µM; in the series with CWR22R [14], over 30 µM; in the series with CWR22R [3] it was 51.9 µM. Besides, the GI50 in the series on PC-3 [15] was over 30 µM; in the series on CWR22R [18], over 30 µM; in the series on LNCaP [19], 12 µM. In addition, the results for the Activity (in the series with CWR22R [11]; in series [16]; in series [17]) were 17.88%, “Non-Toxic” and “Non-Toxic”, respectively.

As for `CCN(c1cc(-c2ccc([C@@H]3C[C@H]3NC(=O)C(C)(C)C)cc2)cc(C(=O)NCc2c(C)cc(C)[nH]c2=O)c1C)C1CCOCC1` (racemic), the GI50 in the series with LNCaP [1] was found to be 4.42 µM; with PC-3 [2] it was 7.96 µM; with CWR22R [3], 13.3 µM. Further, the inhibition result in [6] and in series [7] was “inactive” throughout.

As to `NC1CCC(N[C@@H]2C[C@H]2c2ccccc2)CC1` (stereo partly specified), the GI50 with LNCaP [1], with PC-3 [2] and in the series on CWR22R [3] was over 30 µM in each case. In the series on CWR22R [11], the Activity turned out to be 11.56%. The IC50 in series [4] was determined as 24.5 µM; in series [5], 0.51 µM.
